In general, viability refers to a read-out of living cells in per cent, often relative to untreated cells. As usually defined, the CC50 is the concentration at which the toxic effect on the cells reaches its halfway point.

The structures appear in SMILES notation. Activity calls are given as the source filed them. How the calls were made is not given here. Residues, ends and D or L forms follow the SMILES beside them. *: point of attachment. Cbz = O=C(OCc1ccccc1)*

The values that follow come from PubChem BioAssay AID504562 (Southern Research Specialized Biocontainment Screening …, 2011).

Tested on in the first assay: not listed separately
Kind of assay: mammalian cell cytotoxicity, dose response, cytotoxicity control for M. tuberculosis growth inhibitor project, purified and synthesized compounds, set 2 (AID 504562). As to conditions: mammalian cell viability, cytotoxicity counter-screen; at 100 µM (top of the series). Background: Counterscreens check selectivity or assay interference.
Turning to `Nc1c(C(=O)NC2CCCCC2)nsc1C(=O)OCC(=O)NC1CCCCC1`, the viability is 93.5% (inactive). With `COc1cc(NC(=O)C/C(C)=N/NC(=O)c2ccccn2)c(OC)cc1Cl`, the viability was 103% (inactive).

Turning to `CC(=NCc1ccc2c(c1)OCO2)C1=C(O)c2ccccc2C1=O`, the viability is 88.7% (inactive).

With `COC(=O)CCc1nc2c(C#N)c(-c3ccc(Cl)cc3)ccn2n1`, the viability is 99.6% (inactive). Still for that read-out and setting: then `O=C(CSc1nc2ccccc2c(=O)[nH]1)NC1CCCCC1`, with 97.5% (inactive); and `CCc1ccc(/C=C2/C(=O)N(C)C(=S)N2CC(=O)OC)s1`, with 101% (inactive); and `CC1CCN(C(=O)C2CCN(c3nnc(-n4cccc4)s3)CC2)CC1`, with 92.8% (inactive). The same measure, in the same setting: then `COC(=O)c1ccc(CNc2c(N3CCCC3)c(=O)c2=O)cc1`, with 97.3% (inactive); and `Cc1ccc2ccc3ccc(C)nc3c2n1`, with 68.3% (inactive); and `Cc1nc(SCC(=O)NC2CCCCC2)[nH]c(=O)c1C`, with 91.7% (inactive). In the case of `O=C1C(Br)=Cc2cccc3cccc1c23`, the viability was 89.2% (inactive).

For `Cc1ccc(NC(=O)C2C3/C=C\CCCCC32)cc1C` (stereo unspecified), the viability was 97% (inactive). For the compound `CCOC(=O)COn1c2c(c3c4no[n+]([O-])c4ccc31)CCCC2`, the viability is 87.9% (inactive). For the compound `CC[N+](C)(CC)CCCCOc1ccc2c(c1)C(=O)c1cc(OCCCC[N+](C)(CC)CC)ccc1-2`, the viability is 101% (inactive). On to `COC(=O)C(C)Oc1ccc(-c2nccc(-c3ccccn3)n2)cc1` (stereo unspecified), for which the viability is 100% (inactive). On to `COC(=O)C1CC(=O)N(c2ccc(OCc3ccccc3Cl)cc2)C1` (stereo unspecified), for which the viability was 100% (inactive).

`CCOC1OC(=O)C(Cl)=C1Nc1ccccc1C` (stereo unspecified): the viability was 91.1% (inactive). In the case of `O=C(/C=C\c1cccs1)N1CCN(Cc2ccc3c(c2)OCO3)CC1`, the viability is 91.2% (inactive). The same measure, in the same setting: then `CCOC(=O)COc1ccc(/C=C2\NC(=S)N(CC)C2=O)cc1`, with 91.2% (inactive); and `O=C(CSc1nc2ccccc2c(=O)[nH]1)NCc1ccc(Cl)cc1`, with 89.5% (inactive).

The subject of another assay is mammalian cell viability, cytotoxicity counter-screen. Described as above.
Settings: not given
`CCC(C)Nc1ccc(NC(C)CC)cc1` (stereo unspecified): the half-maximal cytotoxic concentration (CC50) is 16.5 µM. Consider `CCOC(=O)CNC(=O)[C@H](Cc1ccccc1)NC(=O)OCc1ccccc1` (Cbz-Phe-Gly-OEt), for which the CC50 is 68.9 µM. As to `Cc1ccc(C(=O)N/N=C(/CC(=O)c2cccs2)C(F)(F)F)cc1`, the CC50 is 31.7 µM. On the same count and under the same terms, then `Cc1ccc2c(c1)c(C1=c3ccccc3=NC1=O)c(O)n2C`, with 14.3 µM; and `S=c1nc[nH]c2nc[nH]c12`, with 38.1 µM; and `CCOC(=O)c1ccc(NC(=O)Cn2ncc(Cl)c(Cl)c2=O)cc1`, with 7.7 µM.

On to `CNc1nc(SCc2ccccc2Cl)nc2c1CCCC2`, for which the cytotoxic concentration (CC50) is 46.1 µM.

`COC(=O)c1cc(=O)n(-c2ccc(F)cc2)c(=Nc2ccc(F)cc2)s1`: the CC50 is 20.8 µM. Still for that read-out and setting: under `Cc1cccc(/C=C/C(=O)c2ccc([N+](=O)[O-])o2)c1` stands 53.1 µM; under `COC(=O)C(Nc1nc(SCC(=O)NC2CCCCC2)nc2ccccc12)c1ccccc1` (stereo unspecified), 88 µM; under `CC(C)NC(=O)c1sc(=S)n2c1[nH]c(=O)c1ccc(C(=O)NCCc3ccc(Cl)cc3)cc12`, 68.8 µM.
